Laboratory results published in patent US11357850B2, “Methods for treating breast cancer using INOS-inhibitory compositions” (The Methodist Hospital, priority 2014, dated 2022).

How the values were obtained:
MDA-MB-231 [1] = assay: Western blot / RT-PCR of EMT, hypoxia, ER stress and TGFβ markers; type: cell-based, human
Procedure: (§1) Protein levels of iNOS and EMT-inducing factors were determined by Western blot with antibodies against: iNOS (N-20) and Twist1 (L-21) (Santa Cruz Biotechnology), Snail (C15D3), Slug (C19G7) and TCF8/Zeb1 (D80D3) (Cell Signaling) (1:1000 dilution). β-actin (Cell Signaling; 1:2000) was used as loading control;
(§2) Western Blot. […] Cells were resuspended in 1× lysis buffer (Cell Signaling Technology, Inc.) and 1× protease/phosphatase inhibitor cocktail (Thermo Scientific). Samples (30 μg protein) were boiled in 4×LDS sample buffer (Thermo Scientific) containing […] (Sigma-Aldrich) and subjected to SDS-PAGE electrophoresis in 4-20% polyacrylamide gels (Bio-Rad, Hercules, Calif., USA). Proteins were transferred onto nitrocellulose membranes (Bio-Rad) and non-specific binding was avoided incubating with 5% non-fat dry milk in 1×Tris-buffered saline (TBS) for 1 hr. Membranes were incubated overnight at 4° C. with primary antibodies (1:1,000 dilution; anti-β-Actin, 1:2,000 dilution). After washing and incubation with the appropriate secondary antibodies for 1 hr (1:2,000 dilution), membranes were washed and incubated with enhanced chemiluminescence substrate. Protein bands were developed in autoradiography films (Denville Scientific, Inc., Holliston, Mass., USA).
RT-PCR Analysis of Spliced XBP1. […] The PCR amplification (50 ng cDNA) was done with […] Taq DNA polymerase (native, 5 U/μL), 0.2 mM dNTP, 1.5 mM MgCl2 (50 mM) and 0.5 μM of each primer.

SUM159 [2] = assay: Western blot of EMT, hypoxia, ER stress and TGFβ markers; type: cell-based, human
Procedure: as §1, §2

MCF10A = assay: Western blot of PERK/eIF2α/ATF4/ATF3 axis with recombinant TGFβ1; type: cell-based; conditions: 1400 W 4 mM co-treatment with recombinant TGFβ1 for 24 hrs
Source text: FIG. 3A, FIG. 3B, FIG. 3C, FIG. 3D, FIG. 3E, FIG. 3F, FIG. 3G, FIG. 311, FIG. 3I, and FIG. 3J show iNOS knockdown impairs tumorigenicity and EMT by a dual impact on HIF1α and endoplasmic reticulum (ER) stress/TGFβ/AFT4/ATF3 crosstalk. Proliferation (FIG. 3A), migration (FIG. 3B), and self-renewal capacity (primary and secondary mammospheres) (FIG. 3C) in MDA-MB-231 cells transfected with two different NOS2-directed shRNAs (shRNA1, shRNA2) compared with empty vector (shRNA-EV). […] Selective iNOS inhibition reduced hypoxia (HIF1α), ER stress markers (IRE1α, ATF4) (FIG. 3F), phospho-Smad2/3, Smad2/3 and mature TGFβ protein levels in MDA-MB-231 and SUM159 cells (FIG. 3G). FIG. 3H: Recombinant TGFβ1 (10 ng/mL for 24 hrs) activates the PERK/eIF2α/ATF4/ATF3 axis in MCF10A. […] FIG. 3J: Selective iNOS inhibition is postulated to impair EMT and tumor cell migration by an impact on HIF1α, ER stress (IRE1α/XBP1) and the crosstalk between ATF4, ATF3 and TGFβ. Results were normalized to empty vector. Data are presented as mean±SEM. ****p<0.0001, ***p<0.001, **p<0.01. One-way ANOVA and Bonferroni's post-hoc test;
Western Blot. Cells were cultured at a density of 2.5×10^5 cells/well in 6-well plates with or without iNOS inhibitors for 96 hrs. Cells were resuspended in 1× lysis buffer (Cell Signaling Technology, Inc.) and 1× protease/phosphatase inhibitor cocktail (Thermo Scientific). […]

HRT-18 cells = conditions: daily treatment with 500 μM; cited from earlier work
[3] = tested on: adenoid cystic carcinoma of the oral cavity; conditions: mouse, in vivo; cited from earlier work
MDA-MB-231 [4] = assay: Cell migration, wound healing assay; type: cell-based, human; conditions: 96 hrs treatment, wound healing 12 hrs
Procedure: (§3) FIG. 18A and FIG. 18B show the migration of MDA-MB-231 and SUM159 cells was assessed by “wound healing” assay. Briefly, 3×10^5 cells were plated in a 6-well plate until confluence in growth medium. […] A “wound” was then created in the cell monolayer. Images were taken at 0 and 12 hrs. Wound-healing capacity was determined with the software Image J. Data were replicated in three independent experiments. Results were normalized to vehicle;
(§4) Cell migration capacity. Cell migration was determined with a “wound healing assay.” Briefly, 3×10^5 cells/well were grown in 6-well plates until confluence. […] To avoid an impact on cell proliferation, low serum medium was changed by regular growth medium in presence of inhibitors for 24 hrs (96 hrs total). A “wound” was then created in the cell monolayer with a 100-4, pipette tip. Images were taken at 0 hrs, and cells were allowed to heal the wound for 12 hrs. Wound-healing capacity was determined with the software Image J. Data were replicated in three independent experiments.

SUM159 [5] = assay: Cell migration, wound healing assay; type: cell-based, human; conditions: 96 hrs treatment, wound healing 12 hrs
Procedure: as §3, §4

[6] = millimolar and micromolar concentrations, 96 hrs

Compound: CC(=N)NCc1cccc(CN)c1 [1400 W, N-[[3-(aminomethyl)phenyl]methyl]-ethanimidamide]
- ER stress markers IRE1α/splicedXBP1 and ATF4 (MDA-MB-231 [1]; 96 hrs): dose-dependent decrease
- hypoxia (HIF1α) (MDA-MB-231 [1]; 96 hrs): dose-dependent decrease
- TGFβ signaling (phospho-Smad2/3, Smad2/3 and mature TGFβ) (MDA-MB-231 [1]; absence and presence of recombinant TGFβ1 (10 ng/mL for 72 hrs)): inhibit TGFβ signaling
- protein levels of the EMT transcription factors Snail, Slug, and Twist1 (MDA-MB-231 [1]; [6]): reduction in protein levels
- Zeb1 protein levels (MDA-MB-231 [1]; millimolar concentrations): decreased
- hypoxia (HIF1α) (SUM159 [2]; 96 hrs): dose-dependent decrease
- TGFβ signaling (phospho-Smad2/3, Smad2/3 and mature TGFβ) (SUM159 [2]; absence of recombinant TGFβ1): inhibit TGFβ signaling
- protein levels of the EMT transcription factors Snail, Slug, and Twist1 (SUM159 [2]; [6]): reduction in protein levels
- Zeb1 protein levels (SUM159 [2]; millimolar concentrations): decreased
- ER stress markers IRE1α and ATF4 (SUM159 [2]; splicedXBP1 was not detected in SUM159 cells): dose-dependent decrease
- stimulation of ATF4 and ATF3 protein levels by TGFβ1 (MCF10A): inhibit the stimulation of ATF4 and ATF3 protein levels
- invasiveness (HRT-18 cells): substantially decreased
- spontaneous lung metastasis [3]: markedly inhibit spontaneous lung metastasis
- migration (MDA-MB-231 [4]; micromolar range): marked dose-dependent decrease in migration
- migration (MDA-MB-231 [4]; millimolar range): marked dose-dependent decrease in migration
- migration (SUM159 [5]; micromolar range): marked dose-dependent decrease in migration
- migration (SUM159 [5]; millimolar range): marked dose-dependent decrease in migration
